Source: US5596002A, “Method of treating chloroquine-resistant malaria with aminoquinoline derivatives” (Hoffmann-La Roche Inc., priority 1993, dated 1997)
Converted amounts (≈) assume the structure as drawn. Like-named read-outs stand apart in the source and are kept apart here.

What was measured:
[1] = system: Plasmodium falciparum, chloroquine-sensitive strain NF54; experiment: activity against P. falciparum in vitro, strain NF54; format: cell-based; conditions: chloroquine-sensitive strain NF54, 48 h-72 h; for IC50: Plasmodium falciparum, read-out: IC50 (50% growth inhibition)
Experimental: (§1) Test method for the determination of the activity against P. falciparum in vitro
(§2) The preparations of the present invention were tested on intraerythrocytary stages of P. falciparum from asynchronous cultures according to the method of Desjardin et al. (Desjardins, R. E. et al: Quantitative assessment of antimalarial activity in vitro by a semiautomated microdilution technique. Antimicrob. Agents Chemother. 16, 710-718, (1979)).
(§3) The culture medium consisted of RPMI 1640 with the addition of 25 mM HEPES, 25 mM NaHCO3, […] neomycin and 10% human serum (A^+). Human-A^+ erythrocytes were used as the P. falciparum host cells. The parasites were maintained at 37° C. in an atmosphere of 3% O2, 4% CO2, 93% N2 and at 95% relative humidity.
(§4) In order to determine the activity, the preparations were dissolved in DMSO, pre-diluted in the culture medium to a suitable starting concentration and subsequently titrated-out into microtitre plates in the 2nd stage over 6-7 steps. After the addition of the parasite culture (0.7% parasitemia in 2.5% erythrocyte suspension), the test plates were incubated under the conditions given above for 48 h-72 h. The parasite growth in the different preparation concentrations was determined using [G-^3 H]-hypoxanthin incorporation compared to untreated control cultures on the same test plates. The 50% growth inhibition (IC50) was calculated according to logit regression analysis from the resulting dosage-activity curve.
(§5) The preparations were tested on at least one chloroquine-resistant and one chloroquine-sensitive P. falciparum strain. Additional sensitive and resistant strains were also included for further characterization.
(§6) Table 1 below contains the IC50 values measured in vitro for the growth inhibition of chloroquine-sensitive and chloroquine-resistant strains of the human pathogenic Plasmodium falciparum.

[2] = system: Plasmodium falciparum, chloroquine-sensitive strain FCH5C2; experiment: activity against P. falciparum in vitro, strain FCH5C2; format: cell-based; conditions: chloroquine-sensitive strain FCH5C2, 48 h-72 h, read-out: IC50 (50% growth inhibition)
Experimental: as §1, §2, §3, §4, §5, §6

[3] = system: Plasmodium falciparum, chloroquine-sensitive strain HB3; experiment: activity against P. falciparum in vitro, strain HB3; format: cell-based; conditions: chloroquine-sensitive strain HB3, 48 h-72 h, read-out: IC50 (50% growth inhibition)
Experimental: as §1, §2, §3, §4, §5, §6

[4] = system: Plasmodium falciparum, chloroquine-resistant strain RFCR3; experiment: activity against P. falciparum in vitro, strain RFCR3; format: cell-based; conditions: chloroquine-resistant strain RFCR3, 48 h-72 h, read-out: IC50 (50% growth inhibition)
Experimental: as §1, §2, §3, §4, §5, §6

[5] = system: Plasmodium falciparum, chloroquine-resistant strain ItG2 F6; experiment: activity against P. falciparum in vitro, strain ItG2 F6; format: cell-based; conditions: chloroquine-resistant strain ItG2 F6, 48 h-72 h, read-out: IC50 (50% growth inhibition)
Experimental: as §1, §2, §3, §4, §5, §6

[6] = system: Plasmodium falciparum, chloroquine-resistant strain Indo; experiment: activity against P. falciparum in vitro, strain Indo; format: cell-based; conditions: chloroquine-resistant strain Indo, 48 h-72 h, read-out: IC50 (50% growth inhibition)
Experimental: as §1, §2, §3, §4, §5, §6

[7] = system: Plasmodium falciparum, chloroquine-resistant strain K1; experiment: activity against P. falciparum in vitro, strain K1; format: cell-based; conditions: chloroquine-resistant strain K1, 48 h-72 h; for IC50: Plasmodium falciparum, read-out: IC50 (50% growth inhibition)
Experimental: as §1, §2, §3, §4, §5, §6

[8] = system: Plasmodium falciparum, chloroquine-resistant strain W2; experiment: activity against P. falciparum in vitro, strain W2; format: cell-based; conditions: chloroquine-resistant strain W2, 48 h-72 h, read-out: IC50 (50% growth inhibition)
Experimental: as §1, §2, §3, §4, §5, §6

[9] = system: Plasmodium falciparum, chloroquine-resistant strain 7G8; experiment: activity against P. falciparum in vitro, strain 7G8; format: cell-based; conditions: chloroquine-resistant strain 7G8, 48 h-72 h, read-out: IC50 (50% growth inhibition)
Experimental: as §1, §2, §3, §4, §5, §6

[10] = system: Plasmodium falciparum, chloroquine-resistant strain W2 Mef; experiment: activity against P. falciparum in vitro, strain W2 Mef; format: cell-based; conditions: 48 h-72 h, read-out: IC50 (50% growth inhibition)
Experimental: as §1, §2, §3, §4, §5, §6

[11] = system: Plasmodium berghei (strain ANKA); experiment: activity against Plasmodium berghei in vivo (infected mice); conditions: mice; for ED50: single administration po, dose reducing average erythrocyte infection rate by 50%, read-out: ED50 (po); for inhibition in vivo at 10 mg/kg: 48 hours after treatment (D+3)
Experimental: Test method for the determination of the activity against Plasmodium berghei in vivo
The preparations according to the present invention were tested on mice infected with malaria pathogens (Plasmodium berghei). Male albino mice (IBM:MORO(SPF), FUELLINSDORF) weighing about 25 g were used as the test animals. They were kept in climatized rooms at 21°-22° C. in groups of 5 animals per cage. They received ad libitum a diet feed with a low PABA content ("NAFAG FUTTER" No. 9009 PAB-45, PABA content 45 mg/kg) and drinking water. On the first day of the test (D0) the test animals were infected with Plasmodium berghei (strain ANKA). For this there was used heparinized blood of a donor mouse with about 30% parasitemia, which was diluted with physiological saline such that it contains 10^8 parasitized erythrocytes per ml. 0.2 ml of this suspension was injected intravenously (i.v.) into the mice to be treated and into the control mice. In untreated control animals the parasitemia normally reaches 30-40% on the third day after the infection (D+3) and the test animals die between days +5 and +7.
The substances to be tested were dissolved or suspended in distilled water or in a mixture of 7% Tween 80, 3% alcohol (96%) and water. Usually, 0.25 ml of this solution or suspension was administered once subcutaneously and perorally to groups of 5 test animals. Treatment was effected 24 hours after the infection. 10 control animals were treated in the same manner with solvent or suspension medium per test.
All substances were tested in a first test in a single dosage of 10 mg/kg. Only those substances which in this test (10 mg/kg) had shown a parasitaemia reduction of 90% were used for the titration.
48 hours after the treatment (D+3), blood smears were prepared from all animals using blood from tail veins and were stained with Giemsa. The average erythrocyte infection rate (parasitemia in %) in the control groups as well as in the groups which had been treated with the test compounds was determined by counting under a microscope. The difference in the average values of the infection rates of control group (100%) and treated groups was calculated and expressed as a percentage reduction (GI %). The ED50 or ED90 was determined mathematically by means of the JMP programme (nonlinear fit). The ED50 (ED90) in mg/kg is that dose which after single administration reduces the average erythrocyte infection rate by 50% (90%) in comparison to the control group.
Table 2 below contains data with respect to the activity measured against Plasmodium berghei in mice: GI % is the percentage reduction in the parasitemia after a single dose of 10 mg/kg of the test substance administered perorally (po) or subcutaneously (sc); ED50 and ED90 are the effective doses of the test substance administered perorally or subcutaneously.

[12] = single dose 10 mg/kg po, read-out: GI % at 10 mg/kg (po): percentage reduction in the parasitemia
[13] = single dose 10 mg/kg sc, read-out: GI % at 10 mg/kg (sc): percentage reduction in the parasitemia

Molecule	IC50 [1] [ng/mL]	IC50 [2] [ng/mL]	IC50 [3] [ng/mL]	IC50 [4] [ng/mL]	IC50 [5] [ng/mL]	IC50 [6] [ng/mL]	IC50 [7] [ng/mL]	IC50 [8] [ng/mL]	IC50 [9] [ng/mL]	IC50 [10] [ng/mL]	ED50 [11] [mg/kg]	inhibition in vivo at 10 mg/kg [11, 12] [%]	inhibition in vivo at 10 mg/kg [11, 13] [%]	IC50 (50% growth inhibition) [1] [ng/mL]	IC50 (50% growth inhibition) [7] [ng/mL]
CN(C)CCNc1ccnc2cc(Cl)ccc12 [Example 5, N2-(7-Chloro-quinolin-4-yl)-N1,N1-dimethyl-ethane-1,2-diamine]	4 (≈ 0.016 µM)	9 (≈ 0.036 µM)	6 (≈ 0.024 µM)	6 (≈ 0.024 µM)	4 (≈ 0.016 µM)	4 (≈ 0.016 µM)	7 (≈ 0.028 µM)	7 (≈ 0.028 µM)	7 (≈ 0.028 µM)	9 (≈ 0.036 µM)	3.3	99.5	99	–	–
CCN(CC)CCNc1ccnc2cc(Cl)ccc12 [Example 6, N2-(7-Chloro-quinolin-4-yl)-N1,N1-diethyl-ethane-1,2-diamine]	5 (≈ 0.018 µM)	8 (≈ 0.0288 µM)	8 (≈ 0.0288 µM)	8 (≈ 0.0288 µM)	5 (≈ 0.018 µM)	4 (≈ 0.0144 µM)	9 (≈ 0.0324 µM)	8 (≈ 0.0288 µM)	9 (≈ 0.0324 µM)	–	3.5	99	99	–	–
Clc1ccc2c(NCCN3CCCC3)ccnc2c1 [Example 7, (7-Chloro-quinolin-4-yl)-(2-pyrrolidin-1-yl-ethyl)-amine]	4 (≈ 0.0145 µM)	7 (≈ 0.0254 µM)	6 (≈ 0.0218 µM)	7 (≈ 0.0254 µM)	5 (≈ 0.0181 µM)	4 (≈ 0.0145 µM)	8 (≈ 0.029 µM)	7 (≈ 0.0254 µM)	8 (≈ 0.029 µM)	8 (≈ 0.029 µM)	–	–	–	–	–
CN(C)CCCNc1ccnc2cc(Cl)ccc12 [Example 15, N3-(7-Chloro-quinolin-4-yl)-N1,N1-dimethyl-propane-1,3-diamine]	2 (≈ 0.00758 µM)	5 (≈ 0.019 µM)	3 (≈ 0.0114 µM)	5 (≈ 0.019 µM)	3 (≈ 0.0114 µM)	3 (≈ 0.0114 µM)	6 (≈ 0.0227 µM)	7 (≈ 0.0265 µM)	7 (≈ 0.0265 µM)	12 (≈ 0.0455 µM)	2	99.8	99.9	–	–
CCN(CC)CCCNc1ccnc2cc(Cl)ccc12 [Example 16, N3-(7-Chloro-quinolin-4-yl)-N1,N1-diethyl-propane-1,3-diamine]	3 (≈ 0.0103 µM)	6 (≈ 0.0206 µM)	5 (≈ 0.0171 µM)	8 (≈ 0.0274 µM)	5 (≈ 0.0171 µM)	4 (≈ 0.0137 µM)	9 (≈ 0.0308 µM)	9 (≈ 0.0308 µM)	9 (≈ 0.0308 µM)	–	2	99.9	99.9	–	–
C[C@@H](CN(C)C)Nc1ccnc2cc(Cl)ccc12 [Example 33c, (S)-N2-(7-Chloro-quinolin-4-yl)-N1,N1-dimethyl-propane-1,2-diamine]	8 (≈ 0.0303 µM)	–	–	–	–	–	24 (≈ 0.091 µM)	–	–	–	1.9	99.9	99.9	–	–
C[C@H](CN(C)C)Nc1ccnc2cc(Cl)ccc12 [Example 33d, (R)-N2-(7-Chloro-quinolin-4-yl)-N1,N1-dimethyl-propane-1,2-diamine]	8 (≈ 0.0303 µM)	–	–	–	–	–	23 (≈ 0.0872 µM)	–	–	–	2.2	99.9	99.9	–	–
CCN(CC)C[C@H](C)Nc1ccnc2cc(Cl)ccc12 [Example 33e, (S)-N2-(7-Chloro-quinolin-4-yl)-N1,N1-diethyl-propane-1,2-diamine]	12 (≈ 0.0411 µM)	–	–	–	–	–	53 (≈ 0.182 µM)	–	–	–	3.1	99.8	99.9	–	–
CCN(CC)C[C@@H](C)Nc1ccnc2cc(Cl)ccc12 [Example 33f, (R)-N2 (7-Chloro-quinolin-4-yl)-N1,N1-diethyl-propane-1,2-diamine]	12 (≈ 0.0411 µM)	–	–	–	–	–	41 (≈ 0.14 µM)	–	–	–	2.8	99.8	99.9	–	–
C[C@@H](CNc1ccnc2cc(Cl)ccc12)N(C)C [Example 33g, (S)-N1-(7-chloro-quinoline-4-yl)-N2,N2-dimethyl-propane-1,2-diamine]	5 (≈ 0.019 µM)	–	–	–	–	–	17 (≈ 0.0644 µM)	–	–	–	–	–	–	–	–
(R)-N1 -(7-Chloro-quinolin-4-yl)-N2,N2 -dimethyl-propane-1,2-diamine [Example 33h]	–	–	–	–	–	–	–	–	–	–	–	–	–	7	18
